Results published in patent US20240139221A1, “TREATMENT OF HPV-INDUCED NEOPLASIA” (priority 2022, published 2024).
Where two headings read alike, the source gives them in different places.

How the values were obtained:
[1] = Approximate solubility in solvents at 25° C. and 50° C., visual observation; type: physicochemical; conditions: thermodynamic from solid
Protocol: The maximum volume of each solvent added was 1 mL. Approximate solubility was determined by visual observation.
Maximum volume of each solvent added was 1 mL. Approximate solubility was determined by visual observation.

[2] = Solubility in buffers, water and simulated vaginal fluid at 37° C.; conditions: for solubility at 0.5 h / solubility at 2 h: 37 °C, thermodynamic from solid; for pH of solution at 2 hrs: 37° C.
Protocol: About 4 mg of Compound I Pattern 1 was added into 2 mL of buffer solution.
(§1) Solubility was tested in five media, pH 3.0 citrate buffer, pH 4.5 acetate buffer, pH 6.8 phosphate buffer, water, simulated vaginal fluid (pH 4.2) at 37° C. for 0.5 h and 2 h.
The salt amount used is equivalent to 10 mg anhydrous free base. […] The obtained clear solutions were analyzed by pH meter for pH, and solubility was determined by observation.
as §1

[3] = Hygroscopicity by DVS at 25° C.; type: physicochemical; conditions: DVS 25° C.; for D. (%) Cycle 1: Desorption cycle 1; for D. (%) Cycle 2: Desorption cycle 2; for S. (%) Cycle 1: Sorption cycle 1; for S. (%) Cycle 2: Sorption cycle 2
Protocol: Hygroscopicity was investigated by DVS at 25° C., using the following method: […]

[4] = Behavior under compression, grinding simulation and granulation simulation (XRPD); type: physicochemical
Protocol: About 10 mg of Compound I monofumarate Pattern 1 (Example 7) was compressed for 5 minutes at 10 MPa with a hydraulic press. XRPD characterization was performed to investigate the polymorphic behavior under compression.
About 10 mg of Compound I monofumarate Pattern 1 (Example 7) was ground manually with a mortar and pestle for 5 min. Form transformation and degree of crystallinity was evaluated by XRPD.
Water or ethanol was added drop wise to about 10 mg of Compound I monofumarate Pattern 1 (Example 7) until solids were wetted sufficiently. The samples were ground manually with a mortar and pestle for 3 minutes. Samples are dried under ambient condition for 10 min. Form transformation and degree of crystallinity were evaluated by XRPD.

[5] = Tablet stability study (purity by HPLC); type: physicochemical
Protocol: Tablets were prepared using the excipients and excipient ratios shown in the first column of the following tables. The tablets were then stored under the conditions indicated and periodically sampled and tested for purity by HPLC.

[6] = Bulk stability (accelerated stability, one week; HPLC and XRPD)
Protocol: Bulk stability: Accelerated stability experiments were conducted at 25° C./92% RH and 40° C./75% RH in an open container, 60° C. in a tight container for one week.
Samples were characterized by XRPD and HPLC and inspected for color change.
Accelerated stability experiments were conducted at 25° C./92% RH in an open container, at 40° C./75% RH in an open container, and at 60° C. in a tight container for one week.

[7] = pH 4.2, fassgf or other biorelevant
[8] = ground manually with mortar and pestle for 5 min
[9] = excipients PC (7.5%) + MCC (91.46%) + MgS (1%)
[10] = excipients PC (7.5%) + Mannitol (91.46%) + MgS (1%)
[11] = excipients PEO-15 (25%) + MCC (74%) + MgS (1%)
[12] = excipients PEO-15 (25%) + Mannitol (74%) + MgS (1%)
[13] = 25° C., 92% RH, open container, one week
[14] = 40° C., 75% RH, open container, one week
[15] = 60° C., tight container, one week

CCOC(=O)[C@H](C)NP(=O)(COCCn1cnc2c(OC)nc(N)nc21)OCc1ccccc1.O=C(O)/C=C/C(=O)O (mixture of isomers) [Compound I monofumarate, (±)-(2S)-Ethyl-2-((((2-(2-amino-6-methoxy-9H-purin-9-yl)-ethoxy)-methyl)-(benzyloxy)-phosphoryl)-amino)-propionate monofumarate]
solubility ([1]; 25 °C, organic solvent or mixture, Table 14, ACN, 25° C., read-out: Solubility (mg/mL) 25° C.): 20 to 25 mg/mL
solubility ([1]; 25 °C, organic solvent or mixture, Table 14, Acetone, 25° C., read-out: Solubility (mg/mL) 25° C.): 50 to 100 mg/mL
solubility ([1]; 25 °C, organic solvent or mixture, Table 14, DCM, 25° C., read-out: Solubility (mg/mL) 25° C.): < 2 mg/mL
solubility ([1]; 25 °C, organic solvent or mixture, Table 14, EA, 25° C., read-out: Solubility (mg/mL) 25° C.): < 2 mg/mL
solubility ([1]; 25 °C, organic solvent or mixture, Table 14, EtOH, 25° C., read-out: Solubility (mg/mL) 25° C.): > 100 mg/mL
solubility ([1]; 25 °C, organic solvent or mixture, Table 14, Heptanes, 25° C., read-out: Solubility (mg/mL) 25° C.): < 2 mg/mL
solubility ([1]; 25 °C, organic solvent or mixture, Table 14, IPA, 25° C., read-out: Solubility (mg/mL) 25° C.): 50 to 100 mg/mL
solubility ([1]; 25 °C, organic solvent or mixture, Table 14, IPAc, 25° C., read-out: Solubility (mg/mL) 25° C.): < 2 mg/mL
solubility ([1]; 25 °C, organic solvent or mixture, Table 14, MEK, 25° C., read-out: Solubility (mg/mL) 25° C.): 20 to 25 mg/mL
solubility ([1]; 25 °C, organic solvent or mixture, Table 14, MTBE, 25° C., read-out: Solubility (mg/mL) 25° C.): < 2 mg/mL
solubility ([1]; 25 °C, organic solvent or mixture, Table 14, MeOH, 25° C., read-out: Solubility (mg/mL) 25° C.): > 100 mg/mL
solubility ([1]; 25 °C, organic solvent or mixture, Table 14, THF, 25° C., read-out: Solubility (mg/mL) 25° C.): > 100 mg/mL
solubility ([1]; 25 °C, organic solvent or mixture, Table 14, Toluene, 25° C., read-out: Solubility (mg/mL) 25° C.): < 2 mg/mL
solubility ([1]; 25 °C, water, Table 14, Water, 25° C., read-out: Solubility (mg/mL) 25° C.): 14 to 17 mg/mL
solubility ([1]; 50 °C, organic solvent or mixture, Table 14, ACN, 50° C., read-out: Solubility (mg/mL) 50° C.): 20 to 33 mg/mL
solubility ([1]; 50 °C, organic solvent or mixture, Table 14, Acetone, 50° C., read-out: Solubility (mg/mL) 50° C.): 125 to 167 mg/mL
solubility ([1]; 50 °C, organic solvent or mixture, Table 14, DCM, 50° C., read-out: Solubility (mg/mL) 50° C.): < 10 mg/mL
solubility ([1]; 50 °C, organic solvent or mixture, Table 14, EA, 50° C., read-out: Solubility (mg/mL) 50° C.): < 10 mg/mL
solubility ([1]; 50 °C, organic solvent or mixture, Table 14, EtOH, 50° C., read-out: Solubility (mg/mL) 50° C.): 250 to 500 mg/mL
solubility ([1]; 50 °C, organic solvent or mixture, Table 14, Heptanes, 50° C., read-out: Solubility (mg/mL) 50° C.): < 10 mg/mL
solubility ([1]; 50 °C, organic solvent or mixture, Table 14, IPA, 50° C., read-out: Solubility (mg/mL) 50° C.): 71 to 84 mg/mL
solubility ([1]; 50 °C, organic solvent or mixture, Table 14, IPAc, 50° C., read-out: Solubility (mg/mL) 50° C.): < 10 mg/mL
solubility ([1]; 50 °C, organic solvent or mixture, Table 14, MEK, 50° C., read-out: Solubility (mg/mL) 50° C.): 22 to 25 mg/mL
solubility ([1]; 50 °C, organic solvent or mixture, Table 14, MTBE, 50° C., read-out: Solubility (mg/mL) 50° C.): < 10 mg/mL
solubility ([1]; 50 °C, organic solvent or mixture, Table 14, MeOH, 50° C., read-out: Solubility (mg/mL) 50° C.): > 500 mg/mL
solubility ([1]; 50 °C, organic solvent or mixture, Table 14, THF, 50° C., read-out: Solubility (mg/mL) 50° C.): 250 to 500 mg/mL
solubility ([1]; 50 °C, organic solvent or mixture, Table 14, Toluene, 50° C., read-out: Solubility (mg/mL) 50° C.): < 10 mg/mL
solubility ([1]; 50 °C, water, Table 14, Water, 50° C., read-out: Solubility (mg/mL) 50° C.): 22 to 25 mg/mL
solubility at 0.5 h ([2]; pH 3, aqueous buffer): > 2 mg/mL
solubility at 2 h ([2]; pH 3, aqueous buffer): > 2 mg/mL
solubility at 0.5 h [2, 7]: > 2 mg/mL
solubility at 2 h [2, 7]: > 2 mg/mL
solubility at 0.5 h ([2]; pH 4.5, aqueous buffer): > 2 mg/mL
solubility at 2 h ([2]; pH 4.5, aqueous buffer): > 2 mg/mL
solubility at 0.5 h ([2]; pH 6.8, aqueous buffer): > 2 mg/mL
solubility at 2 h ([2]; pH 6.8, aqueous buffer): > 2 mg/mL
solubility at 0.5 h ([2]; water): > 2 mg/mL
solubility at 2 h ([2]; water): > 2 mg/mL
pH of solution at 2 hrs ([2]; Simulated vaginal fluid (pH adjusted with 0.2N NaOH)): (5.39)
pH of solution at 2 hrs ([2]; Water): (3.11)
pH of solution at 2 hrs ([2]; pH 3.0 100 mM citrate buffer): (3.05)
pH of solution at 2 hrs ([2]; pH 4.5 50 mM acetate buffer): (4.36)
pH of solution at 2 hrs ([2]; pH 6.8 50 mM phosphate buffer): (6.49)
D. (%) Cycle 1 ([3]; 0% RH): 0.49%
D. (%) Cycle 1 ([3]; 10% RH): 0.62%
D. (%) Cycle 1 ([3]; 20% RH): 0.71%
D. (%) Cycle 1 ([3]; 30% RH): 0.81%
D. (%) Cycle 1 ([3]; 40% RH): 0.93%
D. (%) Cycle 2 ([3]; 0% RH): 0.09%
D. (%) Cycle 2 ([3]; 10% RH): 0.15%
D. (%) Cycle 2 ([3]; 20% RH): 0.35%
D. (%) Cycle 2 ([3]; 30% RH): 0.47%
D. (%) Cycle 2 ([3]; 40% RH): 0.56%
D. (%) Cycle 2 ([3]; 50% RH): 0.67%
D. (%) Cycle 2 ([3]; 60% RH): 0.85%
D. (%) Cycle 2 ([3]; 70% RH): 1.04%
D. (%) Cycle 2 ([3]; 80% RH): 1.30%
D. (%) Cycle 2 ([3]; 90% RH): 1.84%
D. (%) Cycle 2 ([3]; 95% RH): 2.89%
S. (%) Cycle 1 ([3]; 0% RH): 0.49%
S. (%) Cycle 1 ([3]; 10% RH): 0.56%
S. (%) Cycle 1 ([3]; 20% RH): 0.66%
S. (%) Cycle 1 ([3]; 30% RH): 0.76%
S. (%) Cycle 1 ([3]; 40% RH): 0.86%
S. (%) Cycle 1 ([3]; 50% RH): 0.71%
S. (%) Cycle 1 ([3]; 60% RH): 0.85%
S. (%) Cycle 1 ([3]; 70% RH): 1.02%
S. (%) Cycle 1 ([3]; 80% RH): 1.27%
S. (%) Cycle 1 ([3]; 90% RH): 1.78%
S. (%) Cycle 1 ([3]; 95% RH): 2.89%
S. (%) Cycle 2 ([3]; 0% RH): 0.09%
S. (%) Cycle 2 ([3]; 10% RH): 0.18%
S. (%) Cycle 2 ([3]; 20% RH): 0.27%
S. (%) Cycle 2 ([3]; 30% RH): 0.37%
S. (%) Cycle 2 ([3]; 40% RH): 0.47%
water uptake ([3]; up to 95% RH): about 2.9%
degree of crystallinity on grinding (XRPD) [4, 8]: crystallinity slightly decreased
form transformation on grinding (XRPD) [4, 8]: no form change was observed
form transformation on granulation simulation (XRPD) ([4]; wetted with water or ethanol, ground 3 minutes, dried 10 min): neither in ethanol, nor in water form change was observed
purity by HPLC, 0 months [5, 9]: 99.81
purity by HPLC, 1 month 25 C./60% RH [5, 9]: 98.04
purity by HPLC, 1 month 40 C./75% RH [5, 9]: 84.92
purity by HPLC, 0 months [5, 10]: 99.61
purity by HPLC, 1 month 25 C./60% RH [5, 10]: 98.77
purity by HPLC, 1 month 40 C./75% RH [5, 10]: 85.26
purity by HPLC, 0 months [5, 11]: 99.03
purity by HPLC, 1 month 25 C./60% RH [5, 11]: 97.76
purity by HPLC, 1 month 40 C./75% RH [5, 11]: 83.13
purity by HPLC, 0 months [5, 12]: 97.95
purity by HPLC, 1 month 25 C./60% RH [5, 12]: 97.04
purity by HPLC, 1 month 40 C./75% RH [5, 12]: 87.09
XRPD after storage ([6]; 25° C., 84% RH, open container, 2 days): No change
HPLC (purity) after storage [6, 13]: 98.2%
XRPD after storage [6, 13]: No change
HPLC (purity) after storage [6, 14]: 95.6%
XRPD after storage [6, 14]: No change
HPLC (purity) after storage [6, 15]: 95.5%
XRPD after storage [6, 15]: No change
HPLC (purity), Initial ([6]; initial, before storage): 98.6%
